Source: the OligoGym collection
HELM strings list units from the 5' end as sugar, base in round brackets, then linkage (d deoxyribose, r ribose, m 2'-O-methyl, p phosphodiester). Strings are as the collection lists them; they lack the last nucleoside at the 3' end of the tested compound. [moe] = 2'-O-(2-methoxyethyl) (MOE); [sp] = phosphorothioate linkage; [m5C] = 5-methylcytosine

Molecular target: ATXN2
Experiment: mouse, dose not given
Details: ASO

| Substance | 3 h FOB score |
| --- | --- |
| RNA1{[moe](G)[sp].[moe]([m5C])p.[moe](T)p.[moe](G)p.[moe](T)p.d(G)[sp].d(T)[sp].d(A)[sp].d(T)[sp].d(T)[sp].d(T)[sp].d(T)[sp].d(T)[sp].d([m5C])[sp].d(T)[sp].[moe](T)p.[moe]([m5C])p.[moe]([m5C])[sp].[moe](T)}$$$$ (last 3' nucleoside missing) | 0 score 0-7 |
| RNA1{[moe](T)[sp].[moe](T)p.[moe](G)p.[moe](A)p.[moe](A)p.d(T)[sp].d(T)[sp].d(A)[sp].d([m5C])[sp].d(A)[sp].d(A)[sp].d(T)[sp].d(G)[sp].d([m5C])[sp].d(G)[sp].[moe](G)p.[moe](T)p.[moe](A)[sp].[moe](T)}$$$$ (last 3' nucleoside missing) | 4 score 0-7 |
| RNA1{[moe](T)[sp].[moe]([m5C])p.[moe]([m5C])p.[moe](T)p.[moe](A)p.d(T)[sp].d([m5C])[sp].d(A)[sp].d(T)[sp].d([m5C])[sp].d(A)[sp].d(T)[sp].d(T)[sp].d(T)[sp].d(T)[sp].[moe]([m5C])p.[moe]([m5C])p.[moe](A)[sp].[moe](G)}$$$$ (last 3' nucleoside missing) | 3.75 score 0-7 |
| RNA1{[moe](G)[sp].[moe](T)p.[moe](A)p.[moe](T)p.[moe](G)[sp].d(T)[sp].d(T)[sp].d(T)[sp].d(G)[sp].d(T)[sp].d([m5C])[sp].d(T)[sp].d(G)[sp].[moe](T)p.[moe]([m5C])p.[moe](T)[sp].[moe](T)}$$$$ (last 3' nucleoside missing) | 6.5 score 0-7 |
| RNA1{[moe](T)[sp].[moe](T)p.[moe]([m5C])p.[moe](T)p.[moe]([m5C])p.d(T)[sp].d(A)[sp].d(T)[sp].d(T)[sp].d(T)[sp].d([m5C])[sp].d(T)[sp].d(T)[sp].d(T)[sp].d(G)[sp].[moe](T)p.[moe]([m5C])p.[moe]([m5C])[sp].[moe](A)}$$$$ (last 3' nucleoside missing) | 3 score 0-7 |
| RNA1{[moe]([m5C])[sp].[moe](T)p.[moe](G)p.[moe](T)p.[moe](G)p.d(T)[sp].d(A)[sp].d(T)[sp].d(T)[sp].d(T)[sp].d(T)[sp].d(T)[sp].d([m5C])[sp].d(T)[sp].d(T)[sp].[moe]([m5C])p.[moe]([m5C])p.[moe](T)[sp].[moe]([m5C])}$$$$ (last 3' nucleoside missing) | 0 score 0-7 |
| RNA1{[moe](G)[sp].[moe](G)p.[moe](T)p.[moe]([m5C])p.[moe](A)p.d(A)[sp].d(G)[sp].d(G)[sp].d(T)[sp].d([m5C])[sp].d(A)[sp].d(A)[sp].d(T)[sp].d(A)[sp].d([m5C])[sp].[moe](T)p.[moe](T)p.[moe](T)[sp].[moe](T)}$$$$ (last 3' nucleoside missing) | 2 score 0-7 |
| RNA1{[moe](G)[sp].[moe](T)p.[moe](T)p.[moe](G)p.[moe]([m5C])p.d(A)[sp].d([m5C])[sp].d(A)[sp].d(T)[sp].d(A)[sp].d(G)[sp].d(G)[sp].d(T)[sp].d(T)[sp].d(A)[sp].[moe](G)p.[moe](A)p.[moe](A)[sp].[moe](T)}$$$$ (last 3' nucleoside missing) | 6 score 0-7 |
| RNA1{[moe](A)[sp].[moe](G)p.[moe]([m5C])p.[moe](T)p.[moe](T)p.[moe](A)p.d(G)[sp].d(A)[sp].d(G)[sp].d(T)[sp].d(T)[sp].d(T)[sp].d(T)[sp].d(T)[sp].d(G)[sp].d([m5C])[sp].[moe]([m5C])p.[moe](T)[sp].[moe](T)}$$$$ (last 3' nucleoside missing) | 5 score 0-7 |
| RNA1{[moe](A)[sp].[moe](G)p.[moe](T)p.[moe]([m5C])p.[moe](T)p.d(T)[sp].d(G)[sp].d(T)[sp].d(T)[sp].d([m5C])[sp].d(A)[sp].d(G)[sp].d(T)[sp].d(G)[sp].d(T)[sp].[moe]([m5C])p.[moe]([m5C])p.[moe](T)[sp].[moe](T)}$$$$ (last 3' nucleoside missing) | 5 score 0-7 |
| RNA1{[moe](T)[sp].[moe](A)p.[moe]([m5C])p.[moe](T)p.[moe](T)p.d([m5C])[sp].d(A)[sp].d([m5C])[sp].d(A)[sp].d(T)[sp].d(T)[sp].d(T)[sp].d(G)[sp].d(G)[sp].d(A)[sp].[moe](G)p.[moe]([m5C])p.[moe]([m5C])[sp].[moe]([m5C])}$$$$ (last 3' nucleoside missing) | 5.25 score 0-7 |
| RNA1{[moe](T)[sp].[moe](T)p.[moe](A)p.[moe](G)p.[moe](G)p.d([m5C])[sp].d(T)[sp].d(A)[sp].d(G)[sp].d(G)[sp].d([m5C])[sp].d(A)[sp].d([m5C])[sp].d(A)[sp].d(T)[sp].[moe](G)p.[moe](G)p.[moe](A)[sp].[moe](G)}$$$$ (last 3' nucleoside missing) | 5.25 score 0-7 |
| RNA1{[moe](T)[sp].[moe](G)p.[moe](T)p.[moe](A)p.[moe]([m5C])[sp].d(T)[sp].d(T)[sp].d([m5C])[sp].d(A)[sp].d([m5C])[sp].d(A)[sp].d(T)[sp].d(T)[sp].[moe](T)p.[moe](G)p.[moe](G)[sp].[moe](A)}$$$$ (last 3' nucleoside missing) | 3.5 score 0-7 |
| RNA1{[moe](T)[sp].[moe](A)p.[moe]([m5C])p.[moe](T)p.[moe](T)[sp].d([m5C])[sp].d(A)[sp].d([m5C])[sp].d(A)[sp].d(T)[sp].d(T)[sp].d(T)[sp].d(G)[sp].[moe](G)p.[moe](A)p.[moe](G)[sp].[moe]([m5C])}$$$$ (last 3' nucleoside missing) | 3.25 score 0-7 |
| RNA1{[moe](A)[sp].[moe](G)p.[moe]([m5C])p.[moe](T)p.[moe]([m5C])p.d(A)[sp].d(T)[sp].d([m5C])[sp].d(A)[sp].d(A)[sp].d(G)[sp].d(G)[sp].d(T)[sp].d(A)[sp].d([m5C])[sp].[moe]([m5C])p.[moe](A)p.[moe](G)[sp].[moe](T)}$$$$ (last 3' nucleoside missing) | 4 score 0-7 |
| RNA1{[moe](G)[sp].[moe]([m5C])p.[moe](A)p.[moe](T)p.[moe](G)p.d(A)[sp].d(T)[sp].d([m5C])[sp].d(T)[sp].d(T)[sp].d(G)[sp].d(T)[sp].d(G)[sp].d(T)[sp].d(A)[sp].[moe](T)p.[moe](A)p.[moe](T)[sp].[moe](A)}$$$$ (last 3' nucleoside missing) | 1 score 0-7 |
| RNA1{[moe](T)[sp].[moe](G)p.[moe](T)p.[moe](A)p.[moe]([m5C])[sp].d(T)[sp].d(T)[sp].d([m5C])[sp].d(A)[sp].d([m5C])[sp].d(A)[sp].d(T)[sp].d(T)[sp].d(T)[sp].d(G)[sp].[moe](G)p.[moe](A)p.[moe](G)[sp].[moe]([m5C])}$$$$ (last 3' nucleoside missing) | 3 score 0-7 |
| RNA1{[moe](T)[sp].[moe](T)p.[moe](T)p.[moe](T)p.[moe](G)p.d([m5C])[sp].d(T)[sp].d(T)[sp].d(A)[sp].d(T)[sp].d(T)[sp].d(A)[sp].d(T)[sp].d(T)[sp].d([m5C])[sp].[moe](T)p.[moe]([m5C])p.[moe](A)[sp].[moe]([m5C])}$$$$ (last 3' nucleoside missing) | 0 score 0-7 |
| RNA1{[moe]([m5C])[sp].[moe](T)p.[moe](T)p.[moe]([m5C])p.[moe](T)[sp].d([m5C])[sp].d(T)[sp].d(A)[sp].d(T)[sp].d(T)[sp].d(T)[sp].d([m5C])[sp].d(T)[sp].[moe](T)p.[moe](T)p.[moe](G)[sp].[moe](T)}$$$$ (last 3' nucleoside missing) | 0 score 0-7 |
| RNA1{[moe](A)[sp].[moe](A)p.[moe](G)p.[moe](A)p.[moe](T)p.d(G)[sp].d(G)[sp].d(G)[sp].d(T)[sp].d(T)[sp].d(T)[sp].d(T)[sp].d(T)[sp].d(T)[sp].d(T)[sp].[moe](G)p.[moe]([m5C])p.[moe](T)[sp].[moe](T)}$$$$ (last 3' nucleoside missing) | 4 score 0-7 |
| RNA1{[moe](A)[sp].[moe](G)p.[moe](T)p.[moe](G)p.[moe](T)p.d(T)[sp].d(T)[sp].d(G)[sp].d(G)[sp].d(G)[sp].d(A)[sp].d(T)[sp].d(G)[sp].d([m5C])[sp].d(T)[sp].[moe](T)p.[moe]([m5C])p.[moe](A)[sp].[moe](G)}$$$$ (last 3' nucleoside missing) | 6.5 score 0-7 |
| RNA1{[moe](T)[sp].[moe]([m5C])p.[moe]([m5C])p.[moe](A)p.[moe](A)p.d(T)[sp].d(T)[sp].d(T)[sp].d([m5C])[sp].d(A)[sp].d(G)[sp].d(A)[sp].d([m5C])[sp].d(T)[sp].d(T)[sp].[moe]([m5C])p.[moe](T)p.[moe](T)[sp].[moe](G)}$$$$ (last 3' nucleoside missing) | 2 score 0-7 |
| RNA1{[moe](A)[sp].[moe]([m5C])p.[moe](A)p.[moe](T)p.[moe](A)p.d(G)[sp].d(G)[sp].d(T)[sp].d(T)[sp].d(A)[sp].d(G)[sp].d(A)[sp].d(A)[sp].d(T)[sp].d(T)[sp].[moe](T)p.[moe](T)p.[moe]([m5C])[sp].[moe]([m5C])}$$$$ (last 3' nucleoside missing) | 1 score 0-7 |
| RNA1{[moe](A)[sp].[moe]([m5C])p.[moe](T)p.[moe](T)p.[moe](T)p.[moe](T)p.d([m5C])[sp].d(T)[sp].d([m5C])[sp].d(A)[sp].d(T)[sp].d(G)[sp].d(T)[sp].d(G)[sp].d([m5C])[sp].d(G)[sp].[moe](G)p.[moe]([m5C])[sp].[moe](A)}$$$$ (last 3' nucleoside missing) | 6.5 score 0-7 |
| RNA1{[moe](T)[sp].[moe](A)p.[moe]([m5C])p.[moe](T)p.[moe](T)p.d(T)[sp].d(T)[sp].d([m5C])[sp].d(T)[sp].d([m5C])[sp].d(A)[sp].d(T)[sp].d(G)[sp].d(T)[sp].d(G)[sp].[moe]([m5C])p.[moe](G)p.[moe](G)[sp].[moe]([m5C])}$$$$ (last 3' nucleoside missing) | 3.75 score 0-7 |
| RNA1{[moe](A)[sp].[moe]([m5C])p.[moe](T)p.[moe](G)p.[moe](T)p.d(T)[sp].d(T)[sp].d([m5C])[sp].d(G)[sp].d(A)[sp].d([m5C])[sp].d([m5C])[sp].d(T)[sp].d([m5C])[sp].d(T)[sp].[moe](G)p.[moe](A)p.[moe](A)[sp].[moe](A)}$$$$ (last 3' nucleoside missing) | 4 score 0-7 |
| RNA1{[moe](T)[sp].[moe](G)p.[moe](T)p.[moe](T)p.[moe](G)p.d(T)[sp].d(T)[sp].d(G)[sp].d(T)[sp].d(T)[sp].d(T)[sp].d(A)[sp].d([m5C])[sp].d(A)[sp].d(T)[sp].[moe](T)p.[moe](A)p.[moe](T)[sp].[moe](T)}$$$$ (last 3' nucleoside missing) | 0 score 0-7 |
